Test results taken from ChEMBL document CHEMBL1909046, “DrugMatrix in vitro pharmacology data”.

Tests used:
[1] = DRUGMATRIX: Glutamate, AMPA radioligand binding (ligand: [3H] AMPA); format: cell membranes, Rattus norvegicus, Wistar, Cerebral cortex, Membrane; settings: Not Active = under 50% inhibition at 10 µM
[2] = target: T1, Muscarinic acetylcholine receptor M4 (Homo sapiens, UniProt P08173); format: cell membranes, CHO-K1, Membrane; settings: cho-k1; note: in other assays of this panel Not Active means under 50% inhibition at 10 µM
T1 sequence (P08173 whole entry): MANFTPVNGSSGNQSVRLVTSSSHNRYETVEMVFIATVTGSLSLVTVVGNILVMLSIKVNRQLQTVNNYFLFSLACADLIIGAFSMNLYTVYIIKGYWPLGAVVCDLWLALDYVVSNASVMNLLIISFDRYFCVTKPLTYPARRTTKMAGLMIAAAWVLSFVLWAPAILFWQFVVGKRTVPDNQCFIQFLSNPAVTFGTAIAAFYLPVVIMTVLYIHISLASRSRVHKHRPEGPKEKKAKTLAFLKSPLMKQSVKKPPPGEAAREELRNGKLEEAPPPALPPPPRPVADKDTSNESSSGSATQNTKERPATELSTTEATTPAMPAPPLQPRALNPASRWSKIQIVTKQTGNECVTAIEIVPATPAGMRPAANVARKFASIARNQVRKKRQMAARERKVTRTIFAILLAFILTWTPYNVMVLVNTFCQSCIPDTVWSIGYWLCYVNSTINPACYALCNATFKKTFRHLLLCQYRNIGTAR

[3] = target: C-C chemokine receptor type 5 (Homo sapiens, UniProt P51681); format: cell membranes, HEK293, Membrane; settings: hek293; note: in other assays of this panel Not Active means under 50% inhibition at 10 µM
Sequence of C-C chemokine receptor type 5 (P51681 whole entry): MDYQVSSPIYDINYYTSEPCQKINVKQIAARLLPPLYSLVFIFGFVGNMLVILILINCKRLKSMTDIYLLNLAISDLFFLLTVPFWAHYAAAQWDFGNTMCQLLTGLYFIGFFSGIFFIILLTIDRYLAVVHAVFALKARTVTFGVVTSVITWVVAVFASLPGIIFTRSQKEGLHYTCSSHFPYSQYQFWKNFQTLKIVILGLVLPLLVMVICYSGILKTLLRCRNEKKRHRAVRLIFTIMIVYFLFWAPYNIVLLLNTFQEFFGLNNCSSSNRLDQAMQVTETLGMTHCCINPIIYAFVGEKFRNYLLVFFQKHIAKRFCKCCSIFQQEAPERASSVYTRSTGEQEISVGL

[4] = DRUGMATRIX: GABAA, Flunitrazepam, Central radioligand binding (ligand: [3H] Flunitrazepam); format: cell membranes, Rattus norvegicus, Wistar, Brain, Membrane; settings: Not Active = under 50% inhibition at 10 µM
[5] = target: C-C chemokine receptor type 2 (Homo sapiens, UniProt P41597); format: cell membranes, CHO-K1, Membrane; settings: cho-k1; note: in other assays of this panel Not Active means under 50% inhibition at 10 µM
Sequence of C-C chemokine receptor type 2 (P41597 whole entry): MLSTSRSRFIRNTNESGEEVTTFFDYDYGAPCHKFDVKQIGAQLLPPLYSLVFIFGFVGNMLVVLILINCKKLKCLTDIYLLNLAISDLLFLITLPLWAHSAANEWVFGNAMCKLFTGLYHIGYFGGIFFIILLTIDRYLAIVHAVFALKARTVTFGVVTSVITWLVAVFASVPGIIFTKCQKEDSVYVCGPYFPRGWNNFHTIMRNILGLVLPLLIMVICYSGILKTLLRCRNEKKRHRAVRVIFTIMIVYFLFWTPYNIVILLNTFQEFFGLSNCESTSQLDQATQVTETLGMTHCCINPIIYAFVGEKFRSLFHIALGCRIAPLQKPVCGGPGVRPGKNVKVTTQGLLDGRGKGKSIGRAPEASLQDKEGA

[6] = DRUGMATRIX: Platelet-Derived Growth Factor (PDGF) radioligand binding (ligand: [125I] PDGF); format: cell-based; settings: nih3t3; Not Active = under 50% inhibition at 10 µM
[7] = DRUGMATRIX: Glutamate, Kainate radioligand binding (ligand: [3H] Kainic acid); format: cell membranes, Rattus norvegicus, Wistar, Brain, Membrane; settings: Not Active = under 50% inhibition at 10 µM
Estrogen receptor beta = Estrogen receptor beta (Homo sapiens, UniProt Q92731); settings: sf9; note: in other assays of this panel Not Active means under 50% inhibition at 10 µM
Sequence of Estrogen receptor beta (Q92731 whole entry): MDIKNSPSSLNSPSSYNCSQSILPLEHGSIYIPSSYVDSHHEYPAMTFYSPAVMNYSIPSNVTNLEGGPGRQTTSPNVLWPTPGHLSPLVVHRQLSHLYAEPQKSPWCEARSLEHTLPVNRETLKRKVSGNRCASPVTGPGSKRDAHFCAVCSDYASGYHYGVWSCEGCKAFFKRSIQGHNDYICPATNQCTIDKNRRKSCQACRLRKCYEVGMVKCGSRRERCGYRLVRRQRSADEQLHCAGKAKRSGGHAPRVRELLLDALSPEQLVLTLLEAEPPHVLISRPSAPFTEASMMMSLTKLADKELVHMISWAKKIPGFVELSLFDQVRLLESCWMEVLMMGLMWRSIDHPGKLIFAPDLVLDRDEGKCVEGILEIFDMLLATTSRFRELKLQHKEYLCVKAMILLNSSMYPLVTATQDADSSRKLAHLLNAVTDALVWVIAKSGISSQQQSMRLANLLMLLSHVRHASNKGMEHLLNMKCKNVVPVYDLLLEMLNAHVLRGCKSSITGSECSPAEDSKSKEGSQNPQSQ

CN1C(=O)COc2c(C(=O)NC3CN4CCC3CC4)cc(Cl)cc21 (stereo not drawn) [AZASETRON]
Not Active: IC50 [1] | Ki [1] | IC50 [2] | IC50 [3] | IC50 [4] | Ki [4] | IC50 [5] | IC50 [6] | Ki [6] | IC50 [7] | Ki [7]

C[C@H]1C[C@H]2[C@@H]3CCC4=CC(=O)C=C[C@]4(C)[C@@]3(Cl)[C@@H](O)C[C@]2(C)[C@@]1(O)C(=O)CO [BECLOMETHASONE]
Not Active: IC50 [1] | Ki [1] | IC50 [2] | IC50 [3] | IC50 [4] | Ki [4] | IC50 [5] | IC50 [6] | Ki [6] | IC50 [7] | Ki [7]

O=C1CC2(CCCC2)CC(=O)N1CCCCN1CCN(c2ncccn2)CC1 [BUSPIRONE]
Not Active: IC50 [1] | Ki [1] | IC50 [2] | IC50 [3] | IC50 [4] | Ki [4] | IC50 [5] | IC50 [6] | Ki [6] | IC50 [7] | Ki [7]

C[C@@]12C(=O)OC(=O)[C@]1(C)[C@H]1CC[C@@H]2O1 [CANTHARIDIN]
Not Active: IC50 [1] | Ki [1] | IC50 [2] | IC50 [3] | IC50 [4] | Ki [4] | IC50 [5] | IC50 [6] | Ki [6] | IC50 [7] | Ki [7]

C[N+](C)(C)CCO.[Cl-] [CHOLINE CHLORIDE]
Not Active: IC50 [1] | Ki [1] | IC50 [2] | IC50 [3] | IC50 [4] | Ki [4] | IC50 [5] | IC50 [6] | Ki [6] | IC50 [7] | Ki [7]

C/C=C/C[C@@H](C)[C@@H](O)[C@H]1C(=O)N[C@@H](CC)C(=O)N(C)CC(=O)N(C)[C@@H](CC(C)C)C(=O)N[C@@H](C(C)C)C(=O)N(C)[C@@H](CC(C)C)C(=O)N[C@@H](C)C(=O)N[C@H](C)C(=O)N(C)[C@@H](CC(C)C)C(=O)N(C)[C@@H](CC(C)C)C(=O)N(C)[C@@H](C(C)C)C(=O)N1C [CYCLOSPORINE]
Not Active: IC50 [1] | Ki [1] | IC50 [2] | IC50 [3] | IC50 [4] | Ki [4] | IC50 [5] | IC50 [6] | Ki [6] | IC50 [7] | Ki [7]

CC(=O)Nc1c(I)c(NC(C)=O)c(I)c(C(=O)O)c1I [DIATRIZOIC ACID]
Not Active: IC50 [1] | Ki [1] | IC50 [2] | IC50 [3] | IC50 [4] | Ki [4] | IC50 [5] | IC50 [6] | Ki [6] | IC50 [7] | Ki [7]

C[C@]12CC[C@@H]3c4ccc(O)cc4CC[C@H]3[C@@H]1CC[C@@H]2O [ESTRADIOL]
Not Active: IC50 [1] | Ki [1] | IC50 [2] | IC50 [3] | IC50 [4] | Ki [4] | IC50 [5] | IC50 [6] | Ki [6] | IC50 [7] | Ki [7]

CC1(C)O[C@@H]2C[C@H]3[C@@H]4C[C@H](F)C5=CC(=O)C=C[C@]5(C)[C@@]4(F)[C@@H](O)C[C@]3(C)[C@]2(C(=O)CO)O1 [FLUOCINOLONE ACETONIDE]
Not Active: IC50 [1] | Ki [1] | IC50 [2] | IC50 [3] | IC50 [4] | Ki [4] | IC50 [5] | IC50 [6] | Ki [6] | IC50 [7] | Ki [7]

Cc1ccc(S(=O)(=O)NC(=O)NN2CC3CCCC3C2)cc1 (stereo not drawn) [GLICLAZIDE]
Not Active: IC50 [1] | Ki [1] | IC50 [2] | IC50 [3] | IC50 [4] | Ki [4] | IC50 [5] | IC50 [6] | Ki [6] | IC50 [7] | Ki [7]

COc1ccc2c(c1)c(CC(=O)O)c(C)n2C(=O)c1ccc(Cl)cc1 [INDOMETHACIN]
Not Active: IC50 [1] | Ki [1] | IC50 [2] | IC50 [3] | IC50 [4] | Ki [4] | IC50 [5] | IC50 [6] | Ki [6] | IC50 [7] | Ki [7]

C#C[C@]1(O)CC[C@H]2[C@@H]3CCc4cc(OC)ccc4[C@H]3CC[C@@]21C [MESTRANOL]
Not Active: IC50 [1] | Ki [1] | IC50 [2] | IC50 [3] | IC50 [4] | Ki [4] | IC50 [5] | IC50 [6] | Ki [6] | IC50 [7] | Ki [7]

Cc1ncc([N+](=O)[O-])n1CCO [METRONIDAZOLE]
Not Active: IC50 [1] | Ki [1] | IC50 [2] | IC50 [3] | IC50 [4] | Ki [4] | IC50 [5] | IC50 [6] | Ki [6] | IC50 [7] | Ki [7]

CC(C)(C(=O)c1cccnc1)c1cccnc1 [METYRAPONE]
Not Active: IC50 [1] | Ki [1] | IC50 [2] | IC50 [3] | IC50 [4] | Ki [4] | IC50 [5] | IC50 [6] | Ki [6] | IC50 [7] | Ki [7]

COc1ccc2cc([C@H](C)C(=O)O)ccc2c1 [NAPROXEN]
Not Active: IC50 [1] | Ki [1] | IC50 [2] | IC50 [3] | IC50 [4] | Ki [4] | IC50 [5] | IC50 [6] | Ki [6] | IC50 [7] | Ki [7]

COC(=O)C1=C(C)NC(C)=C(C(=O)OCC(C)C)C1c1ccccc1[N+](=O)[O-] (stereo not drawn) [NISOLDIPINE]
Not Active: IC50 [1] | Ki [1] | IC50 [2] | IC50 [3] | IC50 [4] | Ki [4] | IC50 [5] | IC50 [6] | Ki [6] | IC50 [7] | Ki [7]

O=C(C1CCCCC1)N1CC(=O)N2CCc3ccccc3C2C1 (stereo not drawn) [PRAZIQUANTEL]
Not Active: IC50 [1] | Ki [1] | IC50 [2] | IC50 [3] | IC50 [4] | Ki [4] | IC50 [5] | IC50 [6] | Ki [6] | IC50 [7] | Ki [7]

CCN(CC)CCOC(=O)c1ccc(N)cc1 [PROCAINE]
Not Active: IC50 [1] | Ki [1] | IC50 [2] | IC50 [3] | IC50 [4] | Ki [4] | IC50 [5] | IC50 [6] | Ki [6] | IC50 [7] | Ki [7]

CCCN(CCC)C(=O)C(CCC(=O)O)NC(=O)c1ccccc1 (stereo not drawn) [PROGLUMIDE]
Not Active: IC50 [1] | Ki [1] | IC50 [2] | IC50 [3] | IC50 [4] | Ki [4] | IC50 [5] | IC50 [6] | Ki [6] | IC50 [7] | Ki [7]

OC(CCN1CCCCC1)(c1ccccc1)C1CCCCC1 (stereo not drawn) [TRIHEXYPHENIDYL]
Not Active: IC50 [1] | Ki [1] | IC50 [3] | IC50 (Estrogen receptor beta) | IC50 [4] | Ki [4] | IC50 [5] | IC50 [6] | Ki [6] | IC50 [7] | Ki [7]

Cc1cc2cc3c(C)cc(=O)oc3c(C)c2o1 [TRIOXSALEN]
Not Active: IC50 [1] | Ki [1] | IC50 [2] | IC50 [3] | IC50 [4] | Ki [4] | IC50 [5] | IC50 [6] | Ki [6] | IC50 [7] | Ki [7]

CCCC(CCC)C(=O)O [VALPROIC ACID]
Not Active: IC50 [1] | Ki [1] | IC50 [2] | IC50 [3] | IC50 [4] | Ki [4] | IC50 [5] | IC50 [6] | Ki [6] | IC50 [7] | Ki [7]

CCC1=C[C@@H]2CN(C1)Cc1c([nH]c3ccccc13)[C@@](C(=O)OC)(c1cc3c(cc1OC)N(C)[C@H]1[C@@](O)(C(=O)OC)[C@H](OC(C)=O)[C@]4(CC)C=CCN5CC[C@]31[C@@H]54)C2 [VINORELBINE]
Not Active: IC50 [1] | Ki [1] | IC50 [2] | IC50 [3] | IC50 [4] | Ki [4] | IC50 [5] | IC50 [6] | Ki [6] | IC50 [7] | Ki [7]
